Results on ten compounds are retold here after patent US20200102293A1, “LDHA ACTIVITY INHIBITORS” (ARCTIC PHARMA AS, priority 2017, published 2020).

One data set addresses LDHA (Homo sapiens, UniProt P00338). The experiment in a line: Coupled diaphorase assay, LDHA. The format is biochemical. Conditions: 4-7 nM LDHA, 500 μM lactate, 150 μM NAD+, lactate to pyruvate direction. The source says:
(§1) The inhibitory properties of the compounds were investigated using a coupled enzyme assay that links the lactate dehydrogenase (LDH) reaction to the production of fluorescent resorufin by diaphorase.
(§2) Human lactate dehydrogenases (LDH) catalyze the reversible interconversion between pyruvate and lactate. LDH is capable of catalyzing both the forward (pyruvate to lactate) and the reverse (lactate to pyruvate) reaction, using either NADH or NAD+ as cofactor. The reaction proceeds in either direction dependent on various factors, such as substrate availability, the presence of necessary cofactors, temperature and pH. Different isoforms (LDH A, B, and C) of the enzyme favor different reaction directions—LDHA prefers the conversion from pyruvate to lactate, whereas LDHB preferentially oxidizes lactate to pyruvate.
(§3) The coupled assay relies on the oxidation of NAD^+ to NADH throughout the conversion of lactate to pyruvate by LDH (isoforms A, B and C). The produced NADH serves as cofactor in the diaphorase reaction, which reduces non-fluorescent resazurin to fluorescent resorufin. Therefore, the assay indirectly monitors the rate of pyruvate production. Although the consumption of NADH can be directly monitored due to the intrinsic fluorescence of the molecule (excitation: 340 nm, emission: 460 nm) there are problems linked to the direct readout method. […] Shifting the assay to longer wavelengths by coupling the LDH reaction to the conversion of resazurin to fluorescent resorufin by diaphorase reduces this compound interference. The assay direction was thus chosen to provide a robust and reliable assay.
(§4) Compounds were tested in duplicates using 2-fold, 3-fold or 4-fold serial dilutions including 11 individual concentrations, starting from 5000 μM to 30 μM. […] The controls allowed for the calculation of the percentage inhibition for each data point. […] Enzyme solution leading to final concentrations of 4-7 nM LDHA or 6 nM LDHB, as well as 0.2 U/mI diaphorase in the reaction well was dispensed into 384-well plates (Greiner bio-one) using a CyBi®-SELMA robotic pipettor. Compound dilutions and the enzyme were incubated for at least 20 min at room temperature. […] The reaction was quenched by the addition of a stop solution (final concentrations: 20 mM EDTA, 400 mM NaCl, 40 mM pyruvate). Fluorescence was read out after 5 min of incubation at an excitation wavelength of 560 nm and an emission wavelength of 590 nm on a Perkin Elmer Victor X plate reader.
(§5) Therefore, an enzyme solution only containing diaphorase was incubated with the compound dilution series.
(§6) Dose response curves were fitted in KaleidaGraph (www.synergy.com) or Dotmatics software package (www.dotmatics.com) using a standard 4-parameter fit (Levenberg-Marquardt fitting procedure), resulting in IC50 values for the test compounds.

Another data set addresses LDHB (Homo sapiens, UniProt P07195). Briefly: Coupled diaphorase assay, LDHB. The format is biochemical. Conditions: 6 nM LDHB, 500 μM lactate, 150 μM NAD+, lactate to pyruvate direction.
Description: as §1, §2, §3, §4, §5, §6

The conditions of data set [1]: in vivo; cited from earlier work.
Data set [2] concerns MIA PaCa-2 human pancreatic cells. To be noted: MIA PaCa-2 cells; cited from earlier work.
The test system of data set [3] is mice with temporal-lobe epilepsy. To be noted: directly injected into the hippocampus; cited from earlier work.
In the next data set the test system is LDH. Conditions: in vitro; cited from earlier work.

Chain of LDHB (P07195 whole entry): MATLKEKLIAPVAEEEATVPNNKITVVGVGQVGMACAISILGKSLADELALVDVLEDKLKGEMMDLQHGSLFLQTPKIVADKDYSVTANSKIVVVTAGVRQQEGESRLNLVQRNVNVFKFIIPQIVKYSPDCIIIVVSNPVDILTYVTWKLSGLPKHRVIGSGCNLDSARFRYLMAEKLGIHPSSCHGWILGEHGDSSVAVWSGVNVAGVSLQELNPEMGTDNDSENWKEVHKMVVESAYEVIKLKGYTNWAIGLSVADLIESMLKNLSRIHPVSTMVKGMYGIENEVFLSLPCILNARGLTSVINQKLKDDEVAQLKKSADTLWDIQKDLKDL

In the case of `COCCOC(=O)OC1=C(Sc2ccccc2Cl)C(=O)NC(c2ccsc2)(c2cccc(OCC3CCCC3)n2)C1` (stereo not drawn) [Example 4, 5-((2-chlorophenyl)thio)-6′-(cyclopentylmethoxy)-6-oxo-2-(thiophen-3-yl)-1,2,3,6-tetrahydro-[2,2′-bipyridin]-4-yl (2-methoxyethyl) carbonate], the IC50 on LDHA and at LDHB was > 200 µM in each case.
In the case of `CCOC(=O)OC1=C(Sc2ccccc2Cl)C(=O)NC(c2ccc(Br)cc2)(c2ccsc2)C1` (stereo not drawn) [Example 1, 2-(4-bromophenyl)-5-[(2-chlorophenyl)sulfanyl]-6-oxo-2-(thiophen-3-yl)-1,2,3,6-tetrahydropyridin-4-yl ethyl carbonate], the values for the IC50 at LDHA and on LDHB were 1 to 100 µM and > 200 µM, respectively.
For `CCOC(=O)OC1=C(Sc2ccccc2Cl)C(=O)NC(c2ccsc2)(c2cccc(Br)n2)C1` (stereo not drawn) [Example 3, 6′-bromo-5-((2-chlorophenyl)thio)-6-oxo-2-(thiophen-3-yl)-1,2,3,6-tetrahydro-[2,2′-bipyridin]-4-yl ethyl carbonate], in that order: > 200 µM and > 200 µM.
For `COC(=O)OC1=C(Sc2ccccc2Cl)C(=O)NC(c2ccsc2)(c2ccc(Br)cn2)C1` (stereo not drawn) [Example 6, 5′-bromo-5-((2-chlorophenyl)thio)-6-oxo-2-(thiophen-3-yl)-1,2,3,6-tetrahydro-[2,2′-bipyridin]-4-yl methyl carbonate], in that order: > 200 µM and > 200 µM.
For the compound `O=C1CC(c2ccsc2)(c2cccc(OCC3CCCC3)n2)NC(=O)C1Sc1ccccc1Cl` (stereo not drawn) [Example 9, 3-((2-chlorophenyl)thio)-6-(6-(cyclopentylmethoxy)pyridin-2-yl)-6-(thiophen-3-yl)piperidine-2,4-dione, reference compound], the IC50 on LDHA and at LDHB was 1 to 100 µM each time.
In the case of `COC(=O)OC1=C(Sc2ccccc2Cl)C(=O)NC(c2ccc(N3CCOCC3)cc2)(c2ccsc2)C1` (stereo not drawn) [Example 5, 5-((2-chlorophenyl)thio)-2-(4-morpholinophenyl)-6-oxo-2-(thiophen-3-yl)-1,2,3,6-tetrahydropyridin-4-yl methyl carbonate], the IC50 at LDHA lay within 1 to 100 µM.
Take `CC(C)COC(=O)OC1=C(Sc2ccccc2Cl)C(=O)NC(c2ccc(N3CCOCC3)cc2)(c2ccsc2)C1` (stereo not drawn) [Example 2, 5-((2-chlorophenyl)thio)-2-(4-morpholinophenyl)-6-oxo-2-(thiophen-3-yl)-1,2,3,6-tetrahydropyridin-4-yl isobutyl carbonate]: the IC50 at LDHA was > 200 µM.
On to `CCCCCCCCCC(=O)OC1=C(Sc2ccccc2Cl)C(=O)NC(c2ccsc2)(c2cccc(OC3COC3)n2)C1` (stereo not drawn) [Example 7, 5-((2-chlorophenyl)thio)-6′-(oxetan-3-yloxy)-6-oxo-2-(thiophen-3-yl)-1,2,3,6-tetrahydro-[2,2′-bipyridin]-4-yl decanoate], for which the figures for the IC50 at LDHA and at LDHB were 1 to 100 µM and 100 to 200 µM, respectively.
Regarding `O=C1CC(c2ccc(N3CCOCC3)cc2)(c2ccsc2)NC(=O)C1Sc1ccccc1Cl` (stereo not drawn) [GNE-140], in data set [1], the clearance result was “rapid clearance”. In addition, the “time of continuous LDHA inhibition until cell death” value in data set [2] is given as ≥ 2 days.
For `NC(=O)C(=O)O` [Oxamate], in data set [3], the effect on seizures entry was “suppress their seizures”. For the same compound, in the data set with LDH, the “concentration range inhibiting LDH enzyme activity” value was “mM range”.
